In US10228378B2, “Diagnostic and therapeutic methods and products related to anxiety disorders” (The University of Vermont and State Agricultural College, priority 2011, dated 2019):
Where “and” joins values, the source holds several entries; their conditions need not be identical. Identical values can stand only once. Entries after “also recorded” stand apart in the source; their conditions may differ. No end group written: not given here.

Columns and labels:
ADCYAP1 transcripts = experiment: Quantitative PCR of ADCYAP1 transcripts in BNST of ovarectomized female rats after estradiol implants; assay type: in vivo, rat; details: OVX female rats, 21-day continuous release pellets, vs control implants
Description: (§1) To establish the relationship between PACAP/PAC1 receptors and estrogen in a validated model of sex hormone regulation, estrogen-induced changes in ADCYAP1 and ADCYAP1R1 transcripts in the bed nucleus of stria terminalis (BNST) in female rats was examined. The BNST is a component of the extended amygdala that is subject to significant gonadal hormonal control. In rodents, it is critical for emotional behavior, mediating stress responses and the light-enhanced startle response. Quantitative PCR was performed (Hammack et al., Psychoneuroendocrinology 34, 833-43 (2009); Girard et al., J Neurochem 99(2): 499-513 (2006); Braas et al., Peptides September 28(9):1856-70 (2007)). Rats were implanted with 21-day continuous release pellets for delivery of estrogen. After rat euthanasia, the different brain regions were quickly dissected and frozen on dry ice. The tissues were homogenized in Stat-60 total RNA/mRNA isolation reagent (Tel-Test “B”, Friendswood, Tex.). […] Real-time quantitative PCR methods and oligonucleotide primers were exactly as described previously. The melting profiles for amplified DNA fragments were performed to verify unique product amplification in the quantitative PCR assays. […]

ADCYAP1R1 transcripts = experiment: Quantitative PCR of ADCYAP1R1 transcripts in BNST of ovarectomized female rats after estradiol implants; assay type: in vivo, rat; details: OVX female rats, 21-day continuous release pellets, vs control implants
Description: as §1

Sprague-Dawley rats [1] = experiment: Elevated plus maze after acute BNST PACAP38 infusion; assay type: in vivo, rat; details: BNST infusion 1 μg/0.5 μl vs vehicle
Description: For acute infusion studies, rats were anesthetized with isoflurane vapor and secured in a stereotaxic apparatus. After skin incision, the skull was exposed and four screws were inserted to provide skullcap stability. Two stainless steel cannulae (26 gauge, Plastics One, Roanoke, Va.) were lowered at a 20 degree angle just above the anterolateral bed nucleus of the stria terminalis (BNST), from bregma in mm; AP=−0.3, ML=±3.8 and DV=−5.3 from the surface of the dura. A skullcap was created with dental cement to hold the cannulae in place. […]
(§2) A plus maze of black painted wood and elevated 74 cm from the floor consisted of two opposing open and two opposing closed arms (each arm 60 cm long and 9 cm wide), which extended perpendicularly from a central square platform (9×9 cm). […] The sessions were captured digitally, and the time spent in the open and closed arms and the total number of crosses into the open arms were scored. […]
To further characterize the behavioral consequences of BNST PACAP38 infusion, rats were implanted with bilateral cannulae targeted at the BNST. […] Consistent with an anxiogenic effect of BNST PACAP on baseline acoustic startle responding, BNST PACAP38 infusion was anxiogenic on the elevated-plus maze as measured by open arm time (FIG. 12A, df=8, t=3.3, p=0.01).

[2] = Body weight after acute BNST PACAP38 infusion; assay type: in vivo, rat; details: 24 hours after BNST infusion
Description: For acute infusion studies, rats were anesthetized with isoflurane vapor and secured in a stereotaxic apparatus. After skin incision, the skull was exposed and four screws were inserted to provide skullcap stability. Two stainless steel cannulae (26 gauge, Plastics One, Roanoke, Va.) were lowered at a 20 degree angle just above the anterolateral bed nucleus of the stria terminalis (BNST), from bregma in mm; AP=−0.3, ML=±3.8 and DV=−5.3 from the surface of the dura. A skullcap was created with dental cement to hold the cannulae in place. One week after cannulation, the rats were acutely infused bilaterally into the BNST with PACAP38 (American Peptide Co., Sunnyvale, Calif.; 0.1, 0.5 or 1 μg in 0.5 μl) or saline/bovine serum albumin (BSA) vehicle; the infusion cannulae were left in place for 1 min before removal.
To further characterize the behavioral consequences of BNST PACAP38 infusion, rats were implanted with bilateral cannulae targeted at the BNST. One week following implantation, rats received BNST infusions of PACAP38 (1 μg/0.5 μl) or vehicle, and were tested for anxiety-like responses. Consistent with an anxiogenic effect of BNST PACAP on baseline acoustic startle responding, BNST PACAP38 infusion was anxiogenic on the elevated-plus maze as measured by open arm time (FIG. 12A, df=8, t=3.3, p=0.01).

Sprague-Dawley rats [3] = experiment: Elevated plus-maze after chronic BNST PACAP(6-38) infusion during repeated variate stress; assay type: in vivo, rat
Method: Similar procedures were followed for chronic infusions. Once the BNST cannulae (Plastics One, Roanoke, Va.; No. 328OP/SPC) and skullcap were in place, the cannulae were attached to a single bifurcation connector (Plastics One, Roanoke, Va.; No. 21y) using 3 mm catheter tubing (Alzet, Cupertino, Calif.: OC 1.14 mm, ID 0.69 mm). The bifurcation connector was attached to 6.7 cm of catheter tubing attached to a mini-osmotic pump (Alzet, Cupertino, Calif.; No. 2002, 200 μl volume, 0.5 μl/h) containing either antagonist PACAP(6-38) (American Peptide Co., Sunnyvale, Calif.; 75 μM) or vehicle (0.05% BSA in saline). Long term PACAP(6-38) stability at 37° C. was assessed separately by daily aliquot removal for intact and amidated peptide radioimmunoassays. Peptide loss was 4%/day; final minipump PACAP(6-38) concentration at the end of the study was approximately 40 μM. […] The rats were returned to their home cages for 6 day postsurgical recovery; all rats were monitored for food/water intake and weighed daily. […]
as §2

Sprague-Dawley rats [4] = experiment: Novel object exploration test after chronic BNST PACAP(6-38) infusion during repeated variate stress; assay type: in vivo, rat; details: for effect on stress induced anxiety-related responses, novel object test: chronic BNST infusion, stressed rats
Method: (§3) Similar procedures were followed for chronic infusions. Once the BNST cannulae (Plastics One, Roanoke, Va.; No. 328OP/SPC) and skullcap were in place, the cannulae were attached to a single bifurcation connector (Plastics One, Roanoke, Va.; No. 21y) using 3 mm catheter tubing (Alzet, Cupertino, Calif.: OC 1.14 mm, ID 0.69 mm). The bifurcation connector was attached to 6.7 cm of catheter tubing attached to a mini-osmotic pump (Alzet, Cupertino, Calif.; No. 2002, 200 μl volume, 0.5 μl/h) containing either antagonist PACAP(6-38) (American Peptide Co., Sunnyvale, Calif.; 75 μM) or vehicle (0.05% BSA in saline). Long term PACAP(6-38) stability at 37° C. was assessed separately by daily aliquot removal for intact and amidated peptide radioimmunoassays. Peptide loss was 4%/day; final minipump PACAP(6-38) concentration at the end of the study was approximately 40 μM. All catheters were filled with vehicle to delay antagonist infusion into the BNST before the repeated variate stress procedure. The minipumps were primed according to manufacturer's instructions and secured subcutaneously in the interscapular space. The rats were returned to their home cages for 6 day postsurgical recovery; all rats were monitored for food/water intake and weighed daily.
Following acclimation or postsurgery recovery, each animal was randomly assigned to either a control or chronically stressed group. Control group animals remained in their home cages until euthanasia. […]
To determine whether BNST PACAP receptor signaling mediates the behavioral consequences of repeated stress, osmotic minipumps were attached to bilateral indwelling cannulae to chronically infuse the BNST with PACAP(6-38), a PAC1 receptor antagonist, during the seven day repeated variate stress procedure (see above, FIG. 13A). Animal weight and food intake were monitored daily during the entire duration of the experiment, and the animals were evaluated on the elevated plus-maze and novel-object exploration tests 24-48 hours after the last stressor exposure. […]

[5] = Body weight during chronic BNST PACAP(6-38) infusion and repeated variate stress; assay type: in vivo, rat
Method: as §3, with “The minipumps were primed according to manufacturer's instructions and secured subcutaneously in the interscapular space.” left out, “daily. […]” for “daily.”
Weight data were analyzed using a 2×2×7 mixed ANOVA with stress and antagonist treatment as between subjects variables and percent weight change during the stress period as within subjects variables. […]

[6] = Long term PACAP(6-38) stability at 37° C. by radioimmunoassay; assay type: physicochemical
Method: as §3

[7] = chronic BNST infusion by minipump (75 μM, 0.5 μl/h), stressed and non-stressed rats

For C[C@]12CC[C@@H]3c4ccc(O)cc4CC[C@H]3[C@@H]1CC[C@@H]2O [estradiol], the “increase of ADCYAP1 transcripts, dorsal BNST” value (ADCYAP1 transcripts) was 2.1 fold, the “increase of ADCYAP1 transcripts, ventral BNST” value (ADCYAP1 transcripts) was 3.4 fold and the “increase of ADCYAP1R1 mRNA, dorsal BNST” value (ADCYAP1R1 transcripts) was 1.5 fold and 1.6 fold.
In the case of “PACAP38: 38-amino acid peptide form of PACAP (American Peptide Co.) (HSDGIFTDSYSRYRKQMAVKKYLAAVLGKRYKQRVKNK; ends and bridges not checked)”, the “anxiety-like behavior on elevated-plus maze as measured by open arm time” value (Sprague-Dawley rats [1]) was “anxiogenic; also recorded: decreased open arm times”, the “locomotor activity as measured by total number of arm entries” value (Sprague-Dawley rats [1]) was “not affected; also recorded: not changed” and the “weight loss compared to vehicle-infused rats” value [2] was “significantly more weight loss”. For the same molecule, the weight loss ([2]; compared to vehicle controls) was “approximately 8 % of body weight”.
With “Phe-Thr-Asp-Ser-Tyr-Ser-Arg-Tyr-Arg-Lys-Gln-Met-Ala-Val-Lys-Lys-Tyr-Leu-Ala-Ala-Val-Leu-Gly-Lys-Arg-Tyr-Lys-Gln-Arg-Val-Lys-Asn-Lys (FTDSYSRYRKQMAVKKYLAAVLGKRYKQRVKNK) [PACAP(6-38)]” the “anxiety-like behavior on elevated plus maze” value (Sprague-Dawley rats [3]; [7]) was “anxiolytic”, the “effect on stress induced anxiety-related responses, elevated plus-maze” value (Sprague-Dawley rats [3]; chronic BNST infusion, stressed rats) was “attenuated the stress induced anxiety-related responses” and the “anxiety-like behavior on novel object test” value (Sprague-Dawley rats [4]; [7]) was “anxiolytic”. For the same molecule, the “effect on stress induced anxiety-related responses, novel object test” value (Sprague-Dawley rats [4]) was “reverse the anxiogenic effect of stress”, the “effect on stress induced anxiety-related responses, novel object test” value (Sprague-Dawley rats [4]; listed as PACAP receptor antagonist) was “attenuated the stress induced anxiety-related responses” and the “effect on body weight, non-stressed rats” value ([5]; chronic BNST infusion, no stress) was “no apparent effects; also recorded: gained weight steadily”. The “effect on weight gain, stressed rats” value ([5]; continuous BNST infusion during seven day repeated variate stress) was “blocked the stress-induced changes in weight gain; also recorded: gained weight comparable to controls”, the Peptide loss ([6]; intact and amidated peptide radioimmunoassays) was 4 %/day and the “final minipump concentration at the end of the study” value ([6]; start 75 μM) was “approximately 40 μM”.
